Reference: patent publication US12065404B2, “C4-carboxylic acid-substituted tryptamine derivatives and methods of using” (priority 2022, dated 2024)
“And” between values parts separate entries of the source, which are not always exact repeats. Identical values can stand only once. “Also recorded” adds a separate entry of the source.

Assays:
GABAA = GABAA (Homo sapiens, UniProt P14867+P18507+P47870); type: cell-based; settings: ion channel
[1] = Mouse pharmacokinetic (PK) study, parent compound and psilocin metabolite in plasma; type: in vivo, C57Bl/6 mice
Source text: Briefly, the procedure was as follows. […] 19, 2022.

[2] = administered compound itself in plasma, 1 mg/kg i.v., individual animals, 1 mg/kg

Sequence of GABAA (P14867 28-456): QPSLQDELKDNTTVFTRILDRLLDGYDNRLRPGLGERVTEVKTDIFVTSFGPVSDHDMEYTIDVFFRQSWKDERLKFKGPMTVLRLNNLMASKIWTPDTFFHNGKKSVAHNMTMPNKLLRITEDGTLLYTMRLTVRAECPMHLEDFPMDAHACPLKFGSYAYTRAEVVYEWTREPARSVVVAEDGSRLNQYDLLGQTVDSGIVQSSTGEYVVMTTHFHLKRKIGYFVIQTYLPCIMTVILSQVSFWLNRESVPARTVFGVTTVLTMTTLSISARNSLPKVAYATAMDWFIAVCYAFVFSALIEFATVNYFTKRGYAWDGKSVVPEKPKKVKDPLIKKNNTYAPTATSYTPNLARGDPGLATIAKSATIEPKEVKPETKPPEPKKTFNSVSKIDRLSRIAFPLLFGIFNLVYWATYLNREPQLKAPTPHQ
Sequence of GABAA (P47870 26-512): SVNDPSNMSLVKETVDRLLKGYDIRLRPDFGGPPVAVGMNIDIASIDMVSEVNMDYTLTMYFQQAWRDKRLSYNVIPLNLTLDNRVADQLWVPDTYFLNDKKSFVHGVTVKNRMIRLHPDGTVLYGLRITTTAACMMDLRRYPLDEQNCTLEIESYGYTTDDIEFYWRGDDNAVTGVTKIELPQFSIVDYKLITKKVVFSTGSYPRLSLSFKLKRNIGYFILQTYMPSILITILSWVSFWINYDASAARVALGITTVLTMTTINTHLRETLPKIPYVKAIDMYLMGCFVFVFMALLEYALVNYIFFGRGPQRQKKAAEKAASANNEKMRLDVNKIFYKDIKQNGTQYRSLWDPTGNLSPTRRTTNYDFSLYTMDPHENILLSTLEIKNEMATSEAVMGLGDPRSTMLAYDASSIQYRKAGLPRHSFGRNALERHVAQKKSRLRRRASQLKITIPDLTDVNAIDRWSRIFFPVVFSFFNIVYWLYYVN
Sequence of GABAA (P18507 40-475): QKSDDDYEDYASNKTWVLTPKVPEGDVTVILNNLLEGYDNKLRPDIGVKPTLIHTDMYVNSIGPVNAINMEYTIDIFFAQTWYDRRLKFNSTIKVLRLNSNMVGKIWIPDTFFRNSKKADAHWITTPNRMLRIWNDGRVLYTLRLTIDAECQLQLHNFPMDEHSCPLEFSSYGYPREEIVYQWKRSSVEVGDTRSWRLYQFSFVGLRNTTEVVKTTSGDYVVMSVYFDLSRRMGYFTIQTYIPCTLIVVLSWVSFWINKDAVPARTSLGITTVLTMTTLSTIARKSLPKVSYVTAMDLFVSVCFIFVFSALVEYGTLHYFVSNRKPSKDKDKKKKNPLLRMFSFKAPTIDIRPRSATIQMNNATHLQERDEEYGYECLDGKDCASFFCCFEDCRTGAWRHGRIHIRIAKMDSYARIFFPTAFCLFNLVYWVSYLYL

## CN(C)CCc1c[nH]c2cccc(OC(=O)c3cccc4c3OCCO4)c12 [C(XX)]
GABAA; blocker (BL)
  IC50: > 100 µM
GABAA; opener (OP)
  EC50: > 100 µM
[1]; 1 mg/kg i.v. C(XX), 5 min, individual animals
  Plasma concentration of C(XX): 152 ng/mL and 105 ng/mL
[1]; 1 mg/kg i.v. C(XX), 0.25 h, individual animals
  Plasma concentration of C(XX): 84.7 ng/mL and 60.3 ng/mL
[1]; 1 mg/kg i.v. C(XX), 0.5 h, individual animals
  Plasma concentration of C(XX): 37.9 ng/mL and 32.1 ng/mL
[1]; 1 mg/kg i.v. C(XX), 1 h, individual animals
  Plasma concentration of C(XX): 8.13 ng/mL and 8.22 ng/mL
[1]; 1 mg/kg i.v. C(XX), 2 h, individual animals
  Plasma concentration of C(XX): 1.03 ng/mL and 1.14 ng/mL
[1]; 1 mg/kg i.v. C(XX), 4 h, individual animals
  Plasma concentration of C(XX): 0.137 ng/mL and 0.148 ng/mL
[1]; 1 mg/kg i.v. C(XX), 6 h, individual animals
  Plasma concentration of C(XX): BLQ (BLQ denotes below the lower limit of quantitation (0.25 ng/mL).)
[1]; 1 mg/kg i.v. C(XX), 8 h, animals M49-M51
  Plasma concentration of psilocin: BLQ (BLQ denotes below the lower limit of quantitation (0.5 ng/mL).)
[1]; 1 mg/kg i.v. C(XX), 8 h, individual animals
  Plasma concentration of C(XX): BLQ (BLQ denotes below the lower limit of quantitation (0.25 ng/mL).) and No (2×)
[1]; 1 mg/kg oral C(XX), 0.25 h, individual animals
  Plasma concentration of C(XX): 0.459 ng/mL and 0.648 ng/mL
[1]; 1 mg/kg oral C(XX), 0.5 h, individual animals
  Plasma concentration of C(XX): 0.509 ng/mL and 0.648 ng/mL
[1]; 1 mg/kg oral C(XX), 1 h, individual animals
  Plasma concentration of C(XX): 0.286 ng/mL and 0.199 ng/mL
[1]; 1 mg/kg oral C(XX), 2 h, individual animals
  Plasma concentration of C(XX): BLQ (BLQ denotes below the lower limit of quantitation (0.25 ng/mL).)
[1]; 1 mg/kg oral C(XX), 4 h, individual animals
  Plasma concentration of C(XX): BLQ (BLQ denotes below the lower limit of quantitation (0.25 ng/mL).)
[1]; 1 mg/kg oral C(XX), 6 h, individual animals
  Plasma concentration of C(XX): No Peak; also recorded: BLQ (BLQ denotes below the lower limit of quantitation (0.25 ng/mL).)
[1]; 1 mg/kg oral C(XX), 8 h, individual animals
  Plasma concentration of C(XX): No Peak; also recorded: BLQ (BLQ denotes below the lower limit of quantitation (0.25 ng/mL).)
[1]; 1 mg/kg oral C(XX), 24 h, animals M52-M54
  Plasma concentration of psilocin: BLQ (BLQ denotes below the lower limit of quantitation (0.5 ng/mL).)
[1]; 1 mg/kg oral C(XX), 24 h, individual animals
  Plasma concentration of C(XX): No Peak
[1]; 3 mg/kg oral C(XX), 0.25 h, individual animals
  Plasma concentration of C(XX): 1.72 ng/mL and 1.93 ng/mL
[1]; 3 mg/kg oral C(XX), 0.5 h, individual animals
  Plasma concentration of C(XX): 1.13 ng/mL and 1.43 ng/mL
[1]; 3 mg/kg oral C(XX), 1 h, individual animals
  Plasma concentration of C(XX): 0.752 ng/mL and 0.535 ng/mL
[1]; 3 mg/kg oral C(XX), 2 h, individual animals
  Plasma concentration of C(XX): 0.244 ng/mL and 0.156 ng/mL
[1]; 3 mg/kg oral C(XX), 4 h, individual animals
  Plasma concentration of C(XX): No Peak; also recorded: BLQ (BLQ denotes below the lower limit of quantitation (0.25 ng/mL).)
[1]; 3 mg/kg oral C(XX), 6 h, individual animals
  Plasma concentration of C(XX): No Peak; also recorded: BLQ (BLQ denotes below the lower limit of quantitation (0.25 ng/mL).)
[1]; 3 mg/kg oral C(XX), 8 h, individual animals
  Plasma concentration of C(XX): No Peak; also recorded: BLQ (BLQ denotes below the lower limit of quantitation (0.25 ng/mL).)
[1]; 3 mg/kg oral C(XX), 24 h, animals M55-M57
  Plasma concentration of psilocin: BLQ (BLQ denotes below the lower limit of quantitation (0.5 ng/mL).)
[1]; 3 mg/kg oral C(XX), 24 h, individual animals
  Plasma concentration of C(XX): No Peak
[1]; 3 mg/kg oral, no footnote on basis (Table 36B), individual animals
  F(%): 1.08% and 0.962%
[1]; 10 mg/kg oral C(XX), 0.25 h, individual animals
  Plasma concentration of C(XX): 2.99 ng/mL and 9.12 ng/mL and 10.3 ng/mL
[1]; 10 mg/kg oral C(XX), 0.5 h, individual animals
  Plasma concentration of C(XX): 2.79 ng/mL and 3.87 ng/mL and 5.79 ng/mL
[1]; 10 mg/kg oral C(XX), 1 h, individual animals
  Plasma concentration of C(XX): 1.69 ng/mL and 2.74 ng/mL
[1]; 10 mg/kg oral C(XX), 2 h, individual animals
  Plasma concentration of C(XX): 0.707 ng/mL and 0.533 ng/mL and 1.08 ng/mL
[1]; 10 mg/kg oral C(XX), 4 h, individual animals
  Plasma concentration of C(XX): BLQ (BLQ denotes below the lower limit of quantitation (0.25 ng/mL).) and 0.302 ng/mL
[1]; 10 mg/kg oral C(XX), 6 h, individual animals
  Plasma concentration of C(XX): 0.524 ng/mL and BLQ (BLQ denotes below the lower limit of quantitation (0.25 ng/mL).) and 0.196 ng/mL
[1]; 10 mg/kg oral C(XX), 8 h, individual animals
  Plasma concentration of C(XX): BLQ (BLQ denotes below the lower limit of quantitation (0.25 ng/mL).) and 0.185 ng/mL
[1]; 10 mg/kg oral C(XX), 24 h, animals M58-M60
  Plasma concentration of psilocin: BLQ (BLQ denotes below the lower limit of quantitation (0.5 ng/mL).)
[1]; 10 mg/kg oral C(XX), 24 h, individual animals
  Plasma concentration of C(XX): No Peak
[1]; [2]
  AUC0-inf: 62.5 ng·h/mL and 48.1 ng·h/mL
  AUC0-inf/Dose: 48.3 kg·ng·h/mL/mg and 62.5 kg·ng·h/mL/mg and 48.1 kg·ng·h/mL/mg
  AUC0-tlast: 62.4 ng·h/mL and 48.0 ng·h/mL
  AUC0-tlast/Dose: 48.1 kg·ng·h/mL/mg and 62.4 kg·ng·h/mL/mg and 48.0 kg·ng·h/mL/mg
  Apparent t1/2: 31.7 min and 32.2 min
  C0: 204 ng/mL and 139 ng/mL
  CL: 266.52 mL/min/kg and 346.28 mL/min/kg
